Laboratory results: US20230293469A1, “NOVEL PHARMACEUTICAL COMPOSITIONS” (NEUROPRO THERAPEUTICS, INC., priority 2020, published 2023)

Columns and labels:
[1] = Oral dose PK of NPT2042 in dog (AUC for absolute bioavailability); assay type: in vivo; settings: dog
Procedure: Assays were performed to determine absolute bioavailability of NPT2042 in two species: dog and rat. The calculation of absolute bioavailability depends on four inputs: the areas under the curves (AUC) for oral and IV, and the oral and IV doses.
Testing was conducted to determine AUCs for an oral dose in dog.
Two dogs were each dosed 30 mg/kg NPT2042 orally, on two different days.

Microsomes = experiment: Proposed metabolite structures and biotransformation pathways (rat, dog, human microsomes); assay type: in vitro ADME; settings: for Proposed Biotransformation Pathway: metabolite of NPT-2042 in microsomes
Procedure: Incubation of Test Compound in Microsomes • 1. Compound final concentration: 10 uM. • 2. Microsomes concentration 1 mg/mL. • 3. Incubate for 1 hour, with an NADPH regenerating system. • 4. 0.5 mL of incubation mixture at 0 min and 1 hour, mixed with 0.5 mL of acetonitrile. • 5. Vortex, and centrifuge at 13200 rpm for 10 min. • 6. Supernatant was transferred to a clean vial for LCMS analysis NADPH regenerating system (cofactor; consisting of NADP [0.340 mg/mL], G6P [1.56 mg/mL], and G6PDH [0.4 U/mL] solutions)
LC-MS/MS Method: • HPLC Column: Agilent, Polaris 3 C18-A, 150×2.0 mm (S/N: 533819), made in Netherlands. • Guard Column: Agilent, MonoChrom 3 C18 MetaGuard, 10×2.0 mm (S/N: 556145) • Column temperature: 40° C. • Mobile Phase A: 5 mM ammonium format in water (Optima) • Mobile Phase B: acetonitrile (Optima) • Flow rate: 0.2 mL/min • Gradient (Table on right) • MS: Thermo Q Exactive Plus.
Summary of Proposed Metabolite Structures and Biotransformation Pathway

Human Microsomes = experiment: Metabolite screening of NPT-2042 in human microsomes; assay type: in vitro ADME; settings: NPT-2042 10 uM, microsomes 1 mg/mL, 1 hour, NADPH regenerating system
Procedure: (§1) Incubation of Test Compound in Microsomes • 1. Compound final concentration: 10 uM. • 2. Microsomes concentration 1 mg/mL. • 3. Incubate for 1 hour, with an NADPH regenerating system. • 4. 0.5 mL of incubation mixture at 0 min and 1 hour, mixed with 0.5 mL of acetonitrile. • 5. Vortex, and centrifuge at 13200 rpm for 10 min. • 6. Supernatant was transferred to a clean vial for LCMS analysis NADPH regenerating system (cofactor; consisting of NADP [0.340 mg/mL], G6P [1.56 mg/mL], and G6PDH [0.4 U/mL] solutions) LC-MS/MS Method: • HPLC Column: Agilent, Polaris 3 […], 150×2.0 mm (S/N: 533819), made in Netherlands. • Guard Column: Agilent, MonoChrom 3 C18 MetaGuard, 10×2.0 mm (S/N: 556145) • Column temperature: 40° C. • Mobile Phase A: 5 mM ammonium format in water (Optima) • Mobile Phase B: acetonitrile (Optima) • Flow rate: 0.2 mL/min • Gradient (Table on right) • MS: Thermo Q Exactive Plus.

Rat Microsomes = experiment: Metabolite screening of NPT-2042 in rat microsomes; assay type: in vitro ADME; settings: NPT-2042 10 uM, microsomes 1 mg/mL, 1 hour, NADPH regenerating system
Procedure: as §1

Dog Microsomes = experiment: Metabolite screening of NPT-2042 in dog microsomes; assay type: in vitro ADME; settings: NPT-2042 10 uM, microsomes 1 mg/mL, 1 hour, NADPH regenerating system
Procedure: as §1

[2] = elderly, population-based control study; cited from earlier work
[3] = dose level 30 mg/kg NPT2042, Table 4
[4] = dose level 30 mg/kg NPT2042, Table 5

CCCCNc1cc(C(=O)O)cc(S(N)(=O)=O)c1Oc1ccccc1 [Bumetanide, bumetanide, reference compound]
Bumetanide concentration, Time 0.50 h [1, 3]: BQL | Bumetanide concentration, Time 1.00 h [1, 3]: BQL | Bumetanide concentration, Time 2.00 h [1, 3]: BQL | Bumetanide concentration, Time 4.00 h [1, 3]: BQL | Bumetanide concentration, Time 6.00 h [1, 3]: BQL | Bumetanide concentration, Time 8.00 h [1, 3]: BQL | Bumetanide concentration, Time 12.00 h [1, 3]: BQL | Bumetanide concentration, Time 24.00 h [1, 3]: BQL | Bumetanide concentration, Time 0.50 h [1, 4]: BQL | Bumetanide concentration, Time 1.00 h [1, 4]: BQL | Bumetanide concentration, Time 2.00 h [1, 4]: BQL | Bumetanide concentration, Time 4.00 h [1, 4]: BQL | Bumetanide concentration, Time 6.00 h [1, 4]: BQL | Bumetanide concentration, Time 8.00 h [1, 4]: BQL | Bumetanide concentration, Time 12.00 h [1, 4]: BQL | Bumetanide concentration, Time 24.00 h [1, 4]: BQL

Nc1cc(C(=O)NCc2ccccc2)cc(S(N)(=O)=O)c1Oc1ccccc1 [Example M1]
Proposed Biotransformation Pathway (Microsomes): De-alkylations | Human Mic (MS Intensity) (Human Microsomes): 1.42E+06 | Rat Mic (MS Intensity) (Rat Microsomes): 1.28E+07 | Dog Mic (MS Intensity) (Dog Microsomes): 2.95E+06

Nc1cc(C(=O)N(Cc2ccccc2)Cc2ccccc2)cc(S(N)(=O)=O)c1Oc1ccccc1 [Example M4]
Proposed Biotransformation Pathway (Microsomes): De-alkylation | Human Mic (MS Intensity) (Human Microsomes): 2.52E+07 | Rat Mic (MS Intensity) (Rat Microsomes): 6.53E+07 | Dog Mic (MS Intensity) (Dog Microsomes): 3.11E+07

CCCCNc1cc(C(=O)NCc2ccccc2)cc(S(N)(=O)=O)c1Oc1ccccc1 [Example M6]
Proposed Biotransformation Pathway (Microsomes): De-alkylation | Human Mic (MS Intensity) (Human Microsomes): 3.25E+07 | Rat Mic (MS Intensity) (Rat Microsomes): 7.96E+07 | Dog Mic (MS Intensity) (Dog Microsomes): 4.12E+07

O=C(O)Cc1ccccc1Nc1c(Cl)cccc1Cl [diclofenac, reference compound]
Metabolism of positive control (Microsomes; microsome incubation): showed Phase I metabolism

NS(=O)(=O)c1cc(C(=O)O)c(NCc2ccco2)cc1Cl [furosemide]
Protective factor for the development of epilepsy [2]: 39%
